In patent publication US10201532B2, “Compounds and their use” (ALLECRA THERAPEUTICS GMBH, priority 2010, dated 2019):
Where “and” joins values, the source holds several entries; their conditions need not be identical. Equal entries are not always repeated.

How the values were obtained:
[1] = tested on: KPC-3 expressing E. coli (J53 R6206); test: Synergistic broth micro-dilution MIC (checkerboard); assay type: cell-based, Escherichia coli
[2] = tested on: KPC-2 producing K. pneumoniae (ATCC BAA-1705); test: as above; assay type: cell-based, Klebsiella pneumoniae; details: ATCC BAA-1705
[3] = tested on: KPC2 K. pneumoniae ATCC BAA 1705; test: Mice systemic infection model; assay type: in vivo; details: sub-cutaneous, printed as piperacillin:BLI dose
[4] = tested on: E. cloacae 01 MGH 049 (KPC2, AmpC); test: Synergistic broth micro-dilution MIC; assay type: cell-based; details: BLI at 4 μg/mL
[5] = molecular target: crude KPC-3 enzyme extract (UniProt Q9F663, H272Y, species not given); test: β-Lactamase inhibitory assay with CENTA substrate; assay type: biochemical; details: also headed KPC2
Method in brief: (§1)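 Enzyme extracts from KPC-2-producing and KPC-3-expressing Gram-negative strains served as β-lactamase source. Inhibition by test compound measured with CENTA as chromogenic β-lactamase substrate; IC50 determined.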

[6] = molecular target: T1, crude KPC-2 enzyme extract (Klebsiella pneumoniae, UniProt Q9F663); test: β-Lactamase inhibitory assay with CENTA substrate; assay type: biochemical
T1 construct: enzyme extracts from KPC-2 producing and KPC-3 expressing bacterial gram negative strains were used; endogenous in cells; host or cells: KPC-2 producing gram-negative strain
Method in brief: as §1

[7] = tested on: KPC2 K. pneumoniae ATCC BAA 1705; test: Neutropenic mice thigh infection model (human adapted model); assay type: in vivo; details: for Bacterial load (range), Doripenem + BLI: Doripenem 70 mg/kg fractionated + BLI 35 mg/kg bolus, end point 8 h
E. coli Ecoli233 (KPC3) = test: Synergistic broth micro-dilution MIC; assay type: cell-based, Escherichia coli
[8] = tested on: K. pneumoniae NCTC 13438 (KPC3); test: Synergistic broth micro-dilution MIC; assay type: cell-based, Klebsiella pneumoniae; details: BLI at 4 μg/mL

SMILES: C[n+]1ccn(C[C@@]2(C)[C@H](C(=O)[O-])N3C(=O)C[C@H]3S2(=O)=O)n1 [Compound-1, 1-{[(2S,3S,5R)-2-Carboxy-3-methyl-4,4,7-trioxo-4-thia-1-azabicyclo[3.2.0]hept-3-yl]methyl}-3-methyl-1H-1,2,3-triazol-3-ium]
- MIC of Cefepime in combination with BLI ([1]; BLI at 2 μg/mL): 1 µg/mL
- MIC of Cefotaxime in combination with BLI ([1]; BLI at 2 μg/mL): 1 µg/mL
- MIC of Ceftazidime in combination with BLI ([1]; BLI at 2 μg/mL): 2 µg/mL
- MIC of Ceftobiprole in combination with BLI ([1]; BLI at 2 μg/mL): 2 µg/mL
- MIC of Imipenem in combination with BLI ([1]; BLI at 2 μg/mL): 1 µg/mL
- MIC of Meropenem in combination with BLI ([1]; BLI at 2 μg/mL): <0.06 µg/mL
- MIC of Cefepime in combination with BLI ([1]; BLI at 4 μg/mL): 0.25 µg/mL
- MIC of Cefotaxime in combination with BLI ([1]; BLI at 4 μg/mL): <0.25 µg/mL
- MIC of Ceftazidime in combination with BLI ([1]; BLI at 4 μg/mL): 1 µg/mL
- MIC of Ceftobiprole in combination with BLI ([1]; BLI at 4 μg/mL): 0.5 µg/mL
- MIC of Imipenem in combination with BLI ([1]; BLI at 4 μg/mL): 0.5 µg/mL
- MIC of Cefepime in combination with BLI ([1]; BLI at 8 μg/mL): <0.125 µg/mL
- MIC of Cefotaxime in combination with BLI ([1]; BLI at 8 μg/mL): <0.25 µg/mL
- MIC of Ceftazidime in combination with BLI ([1]; BLI at 8 μg/mL): 1 µg/mL
- MIC of Ceftobiprole in combination with BLI ([1]; BLI at 8 μg/mL): <0.25 µg/mL
- MIC of Imipenem in combination with BLI ([1]; BLI at 8 μg/mL): 0.5 µg/mL
- MIC of Meropenem in combination with BLI ([1]; BLI at 8 μg/mL): <0.06 µg/mL
- MIC of Imipenem in combination with BLI ([1]; BLI at 16 μg/mL): 0.25 µg/mL
- MIC of Meropenem in combination with BLI ([1]; BLI at 16 μg/mL): <0.125 µg/mL
- MIC ([1]; Escherichia coli, read-out: MIC of BLI alone, BLI alone): > 8 µg/mL
- MIC of Cefquinome in combination with BLI ([2]; BLI at 1 μg/mL): >64 µg/mL
- MIC of Ceftiofur in combination with BLI ([2]; BLI at 1 μg/mL): >64 µg/mL
- MIC of Cefepime in combination with BLI ([2]; BLI at 2 μg/mL): 64 µg/mL
- MIC of Cefotaxime in combination with BLI ([2]; BLI at 2 μg/mL): 32 µg/mL
- MIC of Cefquinome in combination with BLI ([2]; BLI at 2 μg/mL): >64 µg/mL
- MIC of Ceftazidime in combination with BLI ([2]; BLI at 2 μg/mL): >64 µg/mL
- MIC of Ceftiofur in combination with BLI ([2]; BLI at 2 μg/mL): >64 µg/mL
- MIC of Ceftobiprole in combination with BLI ([2]; BLI at 2 μg/mL): >64 µg/mL
- MIC of Imipenem in combination with BLI ([2]; BLI at 2 μg/mL): 4 to 8 µg/mL
- MIC of Meropenem in combination with BLI ([2]; BLI at 2 μg/mL): 16 µg/mL
- MIC of Aztreonam in combination with BLI ([2]; BLI at 4 μg/mL): >64 µg/mL
- MIC of Cefadroxil in combination with BLI ([2]; BLI at 4 μg/mL): >64 µg/mL
- MIC of Cefalonium in combination with BLI ([2]; BLI at 4 μg/mL): >64 µg/mL
- MIC of Cefepime in combination with BLI ([2]; BLI at 4 μg/mL): 32 µg/mL
- MIC of Cefotaxime in combination with BLI ([2]; BLI at 4 μg/mL): 16 µg/mL
- MIC of Cefquinome in combination with BLI ([2]; BLI at 4 μg/mL): 64 µg/mL
- MIC of Ceftazidime in combination with BLI ([2]; BLI at 4 μg/mL): ≥64 µg/mL
- MIC of Ceftiofur in combination with BLI ([2]; BLI at 4 μg/mL): >64 µg/mL
- MIC of Ceftobiprole in combination with BLI ([2]; BLI at 4 μg/mL): >64 µg/mL
- MIC of Ertapenem in combination with BLI ([2]; BLI at 4 μg/mL): 32 µg/mL
- MIC of Faropenem in combination with BLI ([2]; BLI at 4 μg/mL): >64 µg/mL
- MIC of Imipenem in combination with BLI ([2]; BLI at 4 μg/mL): 4 µg/mL
- MIC of Meropenem in combination with BLI ([2]; BLI at 4 μg/mL): 4 to 8 µg/mL and 8 µg/mL
- MIC of Cefepime in combination with BLI ([2]; BLI at 8 μg/mL): 16 µg/mL
- MIC of Cefotaxime in combination with BLI ([2]; BLI at 8 μg/mL): 16 µg/mL
- MIC of Cefquinome in combination with BLI ([2]; BLI at 8 μg/mL): 64 µg/mL
- MIC of Ceftazidime in combination with BLI ([2]; BLI at 8 μg/mL): 64 µg/mL
- MIC of Ceftiofur in combination with BLI ([2]; BLI at 8 μg/mL): 64 µg/mL
- MIC of Ceftobiprole in combination with BLI ([2]; BLI at 8 μg/mL): >64 µg/mL
- MIC of Ertapenem in combination with BLI ([2]; BLI at 8 μg/mL): 16 µg/mL
- MIC of Faropenem in combination with BLI ([2]; BLI at 8 μg/mL): >64 µg/mL
- MIC of Imipenem in combination with BLI ([2]; BLI at 8 μg/mL): 2 µg/mL
- MIC of Meropenem in combination with BLI ([2]; BLI at 8 μg/mL): 2 to 4 µg/mL
- MIC of Aztreonam in combination with BLI ([2]; BLI at 16 μg/mL): 64 µg/mL
- MIC of Cefadroxil in combination with BLI ([2]; BLI at 16 μg/mL): >64 µg/mL
- MIC of Cefalonium in combination with BLI ([2]; BLI at 16 μg/mL): 32 µg/mL
- MIC of Cefepime in combination with BLI ([2]; BLI at 16 μg/mL): 4 µg/mL
- MIC of Cefotaxime in combination with BLI ([2]; BLI at 16 μg/mL): 4 µg/mL
- MIC of Cefquinome in combination with BLI ([2]; BLI at 16 μg/mL): 8 to 16 µg/mL
- MIC of Ceftazidime in combination with BLI ([2]; BLI at 16 μg/mL): 4 µg/mL
- MIC of Ceftiofur in combination with BLI ([2]; BLI at 16 μg/mL): 16 to 32 µg/mL
- MIC of Ceftobiprole in combination with BLI ([2]; BLI at 16 μg/mL): 64 µg/mL
- MIC of Ertapenem in combination with BLI ([2]; BLI at 16 μg/mL): 8 µg/mL
- MIC of Faropenem in combination with BLI ([2]; BLI at 16 μg/mL): 64 µg/mL
- MIC of Imipenem in combination with BLI ([2]; BLI at 16 μg/mL): <0.5 to 1 µg/mL and 1 µg/mL
- MIC of Meropenem in combination with BLI ([2]; BLI at 16 μg/mL): 1 µg/mL
- MIC of Cefquinome in combination with BLI ([2]; BLI at 32 μg/mL): 2 to 4 µg/mL
- MIC of Ceftiofur in combination with BLI ([2]; BLI at 32 μg/mL): 4 µg/mL
- MIC of Aztreonam in combination with BLI ([2]; BLI at 64 μg/mL): <0.5 µg/mL
- MIC of Cefadroxil in combination with BLI ([2]; BLI at 64 μg/mL): 64 µg/mL
- MIC of Cefalonium in combination with BLI ([2]; BLI at 64 μg/mL): 8 µg/mL
- MIC of Cefepime in combination with BLI ([2]; BLI at 64 μg/mL): <0.5 µg/mL
- MIC of Cefotaxime in combination with BLI ([2]; BLI at 64 μg/mL): ≤0.5 µg/mL
- MIC of Cefquinome in combination with BLI ([2]; BLI at 64 μg/mL): 1 µg/mL
- MIC of Ceftazidime in combination with BLI ([2]; BLI at 64 μg/mL): 1 µg/mL
- MIC of Ceftiofur in combination with BLI ([2]; BLI at 64 μg/mL): 2 to 4 µg/mL
- MIC of Ceftobiprole in combination with BLI ([2]; BLI at 64 μg/mL): ≤0.5 µg/mL
- MIC of Ertapenem in combination with BLI ([2]; BLI at 64 μg/mL): <0.5 µg/mL
- MIC of Faropenem in combination with BLI ([2]; BLI at 64 μg/mL): 4 µg/mL
- MIC of Imipenem in combination with BLI ([2]; BLI at 64 μg/mL): <0.5 to 1 µg/mL
- MIC of Meropenem in combination with BLI ([2]; BLI at 64 μg/mL): <0.5 µg/mL
- ED50 of Piperacillin:BLI at 1:1 ratio [3]: 50 mg/kg and 50:50 mg/kg
- MIC of Imipenem in combination with BLI [4]: 4 µg/mL
- IC50 [5]: 10.7 µM
- IC50 [6]: 190 µM
- Bacterial load (range), Doripenem + BLI [7]: 7.9E+05-1.4E+06 CFU/thigh
- Bacterial load (range), Doripenem + BLI ([7]; listed as compound-1): 7.9E+05-1.3E+06 CFU/thigh
- Bacterial load, Imipenem + BLI ([7]; Imipenem 140 mg/kg fractionated + BLI 140 mg/kg bolus, end point 6 h): 2.1E+05 CFU/thigh
- MIC of Imipenem in combination with BLI (E. coli Ecoli233 (KPC3); BLI at 4 μg/mL): 4 µg/mL
- MIC of Imipenem in combination with BLI (E. coli Ecoli233 (KPC3); BLI at 16 μg/mL): 1 µg/mL
- MIC of Imipenem in combination with BLI [8]: 32 µg/mL
